According to US11890285B2, “Combination therapies” (Mirati Therapeutics, Inc., priority 2019, dated 2024):
Where “and” joins values, the source holds several entries; their conditions need not be identical. Identical values can stand only once.

How the values were obtained:
[1] = tested on: CT26.WT KRas G12C E3 clone tumors; test: Tumor volumes of CT26.WT KRas G12C E3 clone tumor bearing mice, single agents and combination; assay type: in vivo, BALBc mice
Experimental: (§1) BALBc mice were inoculated in the right hind flank with 1×10^6 CT26.WT KRas G12C E3 cells harboring the KRas G12C mutation, and tumor volumes were measured using a caliper every two-three days and tumor volumes were calculated by the formula: […].
(§2) When tumor volumes reached between 200-400 mm^3 in size (Study Day 0), the mice were divided into four groups of 5 mice each. The first group was daily administered vehicle (10% Captisol in 50 mM citrate buffer pH 5.0) through Study Day 15 and also administered i.p. vehicle (BioXcel diluent) on Study Days 1, 4 and 7. The second group was […] a 10 mg/kg i.p. dose of the murine anti-PD-1 antibody (F26, BioXcel) at Days 1, 4 and 7.
At Study Day 39, four tumor-free mice from the combination group were rechallenged 1×10^6 CT26.WT KRas G12C E3 cells in the opposite left flank and mice were monitored for tumor growth for a period of twenty four days to determine whether a durable, adaptive immune response was observed.

[2] = tested on: CT26.WT KRas G12C E3 clone tumors; test: Repeat study: tumor volumes of CT26.WT KRas G12C E3 clone tumor bearing mice, 10 animals per group; assay type: in vivo, BALBc mice; settings: for Tumor volume: individual mice
Experimental: as §1
In the second study the number of treated mice was increased from 5 animals per group to 10 animals per group.
as §2, with “volumes reach” for “volumes reached”, “of 10” for “of 5”, “Day 10” for “Day 15”

C=C(F)C(=O)N1CCN(c2nc(OC[C@@H]3CCCN3C)nc3c2CCN(c2cccc4cccc(Cl)c24)C3)C[C@@H]1CC#N [Example 478] was tested, and the “mice achieving a complete response” value ([1]; 5 mice per group) was “all five treated mice achieving a complete response after nine days of administration”, the “tumor regrowth / time without a detectable tumor” value ([1]; Example 478 stopped at Study Day 29) was “eventually tumor growth was detected at the original site of implantation in all five mice” and the “mice achieving a complete response” value ([2]; 10 mice per group) was “all ten treated mice achieving a complete response”. The “tumor regrowth / time without a detectable tumor” value ([2]; Example 478 stopped at Study Day 25) was “eventually tumor growth was detected in 6 out of 9 mice at the original site of implantation”, the Tumor volume ([2]; Study Day 14, original implantation site (R), Example 478 100 mg/kg, F26 10 mg/kg i.p., listed as Example 47) was 0 mm^3 (9×) and 4 mm^3 and the Tumor volume ([2]; Study Day 17, original implantation site (R), Example 478 100 mg/kg, F26 10 mg/kg i.p., listed as Example 47) was 0 mm^3 (8×) and 32 mm^3. The Tumor volume ([2]; Study Day 19, original implantation site (R), Example 478 100 mg/kg, F26 10 mg/kg i.p., listed as Example 47) was 51 mm^3 and 0 mm^3 (5×) and 875 mm^3 and 32 mm^3 and 371 mm^3 and 63 mm^3, the Tumor volume ([2]; Study Day 21, original implantation site (R), Example 478 100 mg/kg, F26 10 mg/kg i.p., listed as Example 47) was 268 mm^3 and 0 mm^3 (5×) and 1320 mm^3 and 139 mm^3 and 762 mm^3 and 274 mm^3 and the Tumor volume ([2]; Study Day 24, original implantation site (R), Example 478 100 mg/kg, F26 10 mg/kg i.p., listed as Example 47) was 877 mm^3 and 0 mm^3 (5×) and 2470 mm^3 and 588 mm^3 and 1498 mm^3 and 291 mm^3. The Tumor volume ([2]; Study Day 26, original implantation site (R), Example 478 100 mg/kg, F26 10 mg/kg i.p., listed as Example 47) was 1237 mm^3 and 0 mm^3 (4×) and 923 mm^3 and 1699 mm^3 and 14 mm^3, the Tumor volume ([2]; Study Day 28, original implantation site (R), Example 478 100 mg/kg, F26 10 mg/kg i.p., listed as Example 47) was 1371 mm^3 and 0 mm^3 (4×) and 1056 mm^3 and 2035 mm^3 and 14 mm^3 and the Tumor volume ([2]; Study Day 31, original implantation site (R), Example 478 100 mg/kg, F26 10 mg/kg i.p., listed as Example 47) was 2334 mm^3 and 0R 0L mm^3 (4×) and 2113 mm^3 and 161 mm^3. The Tumor volume ([2]; Study Day 31, site of re-challenge (L)) was 0R 0L mm^3, the Tumor volume ([2]; Study Day 33, original implantation site (R), Example 478 100 mg/kg, F26 10 mg/kg i.p., listed as Example 47) was 0R 0L mm^3 and 289 mm^3 and 63 mm^3 and 32 mm^3 and 4 mm^3 and the Tumor volume ([2]; Study Day 33, site of re-challenge (L), listed as Example 47) was 0R 0L mm^3 and 0 mm^3 (3×). For the same compound, the Tumor volume ([2]; Study Day 38, original implantation site (R), Example 478 100 mg/kg, F26 10 mg/kg i.p., listed as Example 47) was 0R 0L mm^3 and 425 mm^3 and 318 mm^3 and 124 mm^3 and 63 mm^3, the Tumor volume ([2]; Study Day 38, site of re-challenge (L), listed as Example 47) was 0R 0L mm^3 and 0 mm^3 (3×) and the Tumor volume ([2]; Study Day 40, original implantation site (R), Example 478 100 mg/kg, F26 10 mg/kg i.p., listed as Example 47) was 0R 0L mm^3 and 464 mm^3 and 511 mm^3. For the same compound, the Tumor volume ([2]; Study Day 40, site of re-challenge (L), listed as Example 47) was 0R 0L mm^3 and 0 mm^3 (2×).
